{"source": "patent US12286632B2", "about": "“Rationally-designed synthetic peptide shuttle agents for delivering polypeptide cargos from an extracellular space to the cytosol and/or nucleus of a target eukaryotic cell, uses thereof, methods and kits relating to same” (Feldan Bio Inc., priority 2016, dated 2025)", "key": {"HeLa cells [1]": {"system": "HeLa cells", "experiment": "FITC-labeled anti-tubulin antibody transduction assay (flow cytometry, cell viability, microscopy)", "conditions": "antibody 0.5 μM; shuttle 50 μM; 10 seconds, Protocol B", "protocol": "The delivery and microscopy protocols are described in Example 3.\nHeLa cells were cultured and tested in the protein transduction assay described in Example 3.1. […] The cells were subjected to flow cytometry analysis as described in Example 3.3."}, "CA46 cells": {"system": "CA46 cells", "experiment": "GFP-NLS transduction in different adherent and suspension cells (flow cytometry, Pos cells % and viability %)", "format": "cell-based, Homo sapiens", "conditions": "Protocol C, 5 μM shuttle, 5 μM GFP-NLS, 15 seconds", "protocol": "(§1) The ability of the shuttle agent His-CM18-PTD4 to deliver GFP-NLS to the nuclei of different adherent and suspension cells using Protocols B (adherent cells) or C (suspension cells) as described in Example 9.1 was examined. The cell lines tested included: HeLa, Balb3T3, HEK 293T, CHO, NIH3T3, Myoblasts, Jurkat, THP-1, CA46, and HT2 cells, which were cultured as described in Example 1. GFP-NLS (5 μM; see Example 5.1) was co-incubated with 35 μM of His-CM18-PTD4 and exposed to adherent cells for 10 seconds (Protocol B), or was co-incubated with 5 μM of His-CM18-PTD4 and exposed to suspension cells for 15 seconds (Protocol C). […] “Pos cells (%)” is the mean percentages of all cells that emanate a GFP signal."}, "HT2 cells": {"system": "HT2 cells", "experiment": "GFP-NLS transduction in different adherent and suspension cells (flow cytometry, Pos cells % and viability %)", "format": "cell-based", "conditions": "Protocol C, 5 μM shuttle, 5 μM GFP-NLS, 15 seconds", "protocol": "as §1"}, "HeLa cells [2]": {"system": "HeLa cells", "experiment": "Transfection plasmid surrogate assay for delivered CRISPR/Cas9-NLS complex (mCherry/GFP fluorescence)", "format": "cell-based, Human", "conditions": "shuttle 35 μM; 24 and 48 hours post-transduction", "text": "This assay enables one to visually identify cells that have been successfully delivered an active […]as9 complex. […] Transfection of the cells with the expression plasmid results in mCherry™ expression, but no GFP expression (FIG. 39B). […] Successful transduction of an active CRISPR/Cas9 complex results in the CRISPR/Cas9 complex cleaving the plasmid DNA at the STOP codon (FIG. 39C). In a fraction of the cells, random non-homologous DNA repair of the cleaved plasmid occurs and results in removal of the STOP codon, and thus GFP expression and fluorescence (FIG. 39E).\nOn Day 1 of the transfection plasmid surrogate assay, DNA plasmids for different experimental conditions (250 ng) are diluted in DMEM (50 μL) in separate sterile 1.5-mL tubes, vortexed and briefly centrifuged. In separate sterile 1.5-mL tubes, Fastfect™ transfection reagent was diluted in DMEM (50 μL) with no serum and no antibiotics at a ratio of 3:1 (3 μL of Fastfect™ transfection reagent for 1 μg of DNA) and then quickly vortexed and briefly centrifuged. The Fastfect™/DMEM mixture was then added to the DNA mix and quickly vortexed and briefly centrifuged. The Fastfect™/DMEM/DNA mixture is then incubated for 15-20 min at room temperature, before being added to the cells (100 μL per well). The cells are then incubated at 37° C. and 5% CO2 for 5 h. […]"}, "in vitro": {"experiment": "in vitro", "conditions": "human, HeLa cells"}, "THP-1 cells": {"system": "THP-1 cells", "experiment": "GFP-NLS protein transduction assay (flow cytometry: Pos cells %, viability %, relative fluorescence intensity; microscopy)", "quoted_text": "One day before the transduction assay was performed, cells in exponential growth phase were harvested and plated in a 96-well plate (20,000 cells per well). The cells were incubated overnight in appropriate growth media containing FBS (see Example 1). The next day, in separate sterile 1.5 mL tubes, cargo protein at the indicated concentration was pre-mixed (pre-incubated) for 1 or 10 min (depending on the protocol) at 37° C. with the peptide(s) to be tested shuttle agents (0.5 to 5 μM) in 50 μL of fresh medium without serum (unless otherwise specified). The media in wells was removed and the cells were washed three times with freshly prepared phosphate buffered saline (PBS) previously warmed at 37° C. The cells were incubated with the cargo protein/shuttle agent mixture at 37° C. for the indicated time (e.g., 1, 5 or 60 min). After the incubation, the cells were quickly washed three times with freshly prepared PBS and/or heparin (0.5 mg/mL) previously warmed at 37° C. The washes with heparin were required for human THP-1 blood cells to avoid undesired cell membrane-bound protein background in subsequent analyses (microscopy and flow cytometry). The cells were finally incubated in 50 μL of fresh medium with serum at 37° C. before analysis.\nOne day before the transduction assay was performed, suspension cells in exponential growth phase were harvested and plated in a 96-well plate (20,000 cells per well). The cells were incubated overnight in appropriate growth media containing serum (see Example 1). The next day, in separate sterile 1.5-mL tubes, peptides were diluted in sterile distilled water at room temperature (if the cargo is or comprised a nucleic acid, nuclease-free water was used). Cargo protein(s) were then added to the peptides and, if necessary, sterile PBS or cell culture medium (serum-free) was added to obtain the desired concentrations of shuttle agent and cargo in a sufficient final volume to resuspend the cells (e.g., 10 to 100 μL per well in a 96-well plate). The shuttle agent/peptide was then immediately used for experiments. At least three controls were included for each experiment, including: (1) peptide alone (e.g., at highest concentration tested); (2) cargo alone; and (3) without any cargo or shuttle agent. The cells were centrifuged for 2 minutes at 400g, the medium was then removed and the cells were resuspended in PBS previously warmed at 37° C. The cells were centrifuged again 2 minutes at 400g, the PBS removed, and the cells were resuspended with the cargo protein/peptide mixture at 37° C. for the desired length of time. After that, 200 μL of complete medium was added directly on the cells. Cells were centrifuged for 2 minutes at 400g and the medium was removed. The pellet was resuspended and washed in 200 μL of PBS previously warmed at 37° C. After another centrifugation, the PBS was removed and the cells were resuspended in 50 μL of trypsin-EDTA solution for 2 min. 200 of complete medium was directly added and cells were centrifuged for 2 minutes at 400g. The medium was removed and the cells were resuspended in 200 μL of complete medium.\nThe cells incubated in 50 μL of fresh medium were directly observed by microscopy (Bright-field and fluorescence) at different power fields (4× to 40×). The cells were observed using a CoolSNAP-PRO™ camera (Series A02D874021) and images were acquired using the Image-Proplus™ software.\nThe fluorescence of GFP was quantified using flow cytometry (Accuri C6, Becton, Dickinson and Company (BD))."}, "[3]": {"conditions": "THP-1, Protocol C, 5 μM shuttle, 5 μM GFP-NLS, 15 seconds"}}, "data": [{"smiles": "CC[C@H](C)[C@H](NC(=O)[C@H](CCCCN)NC(=O)[C@H](CCCCN)NC(=O)[C@H](Cc1ccccc1)NC(=O)[C@H](CC(C)C)NC(=O)[C@H](CCCCN)NC(=O)[C@H](Cc1c[nH]c2ccccc12)NC(=O)[C@H](CCCCN)NC(=O)[C@H](Cc1c[nH]cn1)NC(=O)[C@H](Cc1c[nH]cn1)NC(=O)[C@H](Cc1c[nH]cn1)NC(=O)[C@H](Cc1c[nH]cn1)NC(=O)[C@H](Cc1c[nH]cn1)NC(=O)[C@@H](N)Cc1c[nH]cn1)C(=O)NCC(=O)N[C@@H](C)C(=O)N[C@H](C(=O)N[C@@H](CC(C)C)C(=O)N[C@@H](CCCCN)C(=O)N[C@H](C(=O)N[C@@H](CC(C)C)C(=O)N[C@H](C(=O)N[C@H](C(=O)NCC(=O)N[C@@H](Cc1ccc(O)cc1)C(=O)N[C@@H](C)C(=O)N[C@@H](CCCNC(=N)N)C(=O)N[C@@H](C)C(=O)N[C@@H](C)C(=O)N[C@@H](C)C(=O)N[C@@H](CCCNC(=N)N)C(=O)N[C@@H](CCC(N)=O)C(=O)N[C@@H](C)C(=O)N[C@@H](CCCNC(=N)N)C(=O)N[C@@H](C)C(=O)O)[C@@H](C)O)[C@@H](C)O)C(C)C)C(C)C", "note": "[His-CM18-PTD4]", "values": [{"measurement": "antibody delivery (microscopy, in words)", "setting": "HeLa cells [1]", "result": "successfully transduced and delivered to the nucleus and/or the cytosol"}, {"measurement": "Cell viability (%) (±St. Dev.; n = 3)", "setting": "CA46 cells", "result": "71.6 ± 1.0", "unit": "%"}, {"measurement": "Mean % cells with GFP signal (±St. Dev.; n = 3)", "setting": "CA46 cells", "result": "24.4 ± 0.6", "unit": "%"}, {"measurement": "Cell viability (%) (±St. Dev.; n = 3)", "setting": "HT2 cells", "result": "90.6 ± 1.5", "unit": "%"}, {"measurement": "Mean % cells with GFP signal (±St. Dev.; n = 3)", "setting": "HT2 cells", "result": "30.5 ± 2.5", "unit": "%"}, {"measurement": "GFP expression after CRISPR/Cas9-NLS cleavage of plasmid surrogate", "setting": "HeLa cells [2]", "result": "GFP fluorescence, the latter resulting from removal of the STOP codon by the transduced CRISPR/Cas9-NLS complex"}, {"measurement": "viability", "setting": "in vitro", "result": "63.2 ± 4.07", "unit": "%"}, {"measurement": "GFP-NLS intracellular delivery after repeated daily treatments (in words)", "setting": "THP-1 cells; 0.5 or 0.8 μM shuttle, 150 min each day, in the presence of serum", "result": "result in intracellular delivery of GFP-NLS"}, {"measurement": "Mean % cells with GFP signal (±St. Dev.; n = 3)", "setting": "THP-1 cells; Protocol C, THP-1, 1 μM shuttle, 5 μM GFP-NLS, incubation 15 sec", "result": "23.7 ± 0.2", "unit": "%"}, {"measurement": "Mean % cells with GFP signal (±St. Dev.; n = 3)", "setting": "THP-1 cells; Protocol C, THP-1, 1 μM shuttle, 5 μM GFP-NLS, incubation 30 sec", "result": "53 ± 0.3", "unit": "%"}, {"measurement": "Mean % cells with GFP signal (±St. Dev.; n = 3)", "setting": "THP-1 cells; Protocol C, THP-1, 1 μM shuttle, 5 μM GFP-NLS, incubation 60 sec", "result": "69.6 ± 4.2", "unit": "%"}, {"measurement": "Mean % cells with GFP signal (±St. Dev.; n = 3)", "setting": "THP-1 cells; Protocol C, THP-1, 1 μM shuttle, 5 μM GFP-NLS, incubation 120 sec", "result": "89 ± 0.8", "unit": "%"}, {"measurement": "Cell viability (%) (±St. Dev.; n = 3)", "setting": "THP-1 cells; [3]", "result": "64.1 ± 4.5", "unit": "%"}, {"measurement": "Mean % cells with GFP signal (±St. Dev.; n = 3)", "setting": "THP-1 cells; [3]", "result": "64.1 ± 1.6", "unit": "%"}, {"measurement": "Mean % cells with GFP signal (±St. Dev.; n = 3)", "setting": "THP-1 cells; THP-1, serum, daily 150 min, 0.5 μM shuttle, 5 μM GFP-NLS, 1 day exposure", "result": "12.1 ± 1.5", "unit": "%"}, {"measurement": "Mean % cells with GFP signal (±St. Dev.; n = 3)", "setting": "THP-1 cells; THP-1, serum, daily 150 min, 0.5 μM shuttle, 5 μM GFP-NLS, 3 days exposure", "result": "73.4 ± 1.1", "unit": "%"}, {"measurement": "Mean % cells with GFP signal (±St. Dev.; n = 3)", "setting": "THP-1 cells; THP-1, serum, daily 150 min, 0.8 μM shuttle, 1 μM GFP-NLS, 1 day exposure", "result": "1.6 ± 0.2", "unit": "%"}, {"measurement": "Mean % cells with GFP signal (±St. Dev.; n = 3)", "setting": "THP-1 cells; THP-1, serum, daily 150 min, 0.8 μM shuttle, 1 μM GFP-NLS, 3 days exposure", "result": "6.5 ± 0.9", "unit": "%"}, {"measurement": "Mean % cells with GFP signal (±St. Dev.; n = 3)", "setting": "THP-1 cells; THP-1, serum, daily 150 min, 0.8 μM shuttle, 2.5 μM GFP-NLS, 1 day exposure", "result": "12.2 ± 0.9", "unit": "%"}, {"measurement": "Mean % cells with GFP signal (±St. Dev.; n = 3)", "setting": "THP-1 cells; THP-1, serum, daily 150 min, 0.8 μM shuttle, 2.5 μM GFP-NLS, 3 days exposure", "result": "62.4 ± 3.5", "unit": "%"}, {"measurement": "Mean % cells with GFP signal (±St. Dev.; n = 3)", "setting": "THP-1 cells; Table 9.3, Protocol A, THP-1, shuttle 1 μM, GFP-NLS 5 μM, 1 hour", "result": "14.2 ± 2.2", "unit": "%"}, {"measurement": "Mean % cells with GFP signal (±St. Dev.; n = 3)", "setting": "THP-1 cells; Table 9.3, Protocol C, THP-1, shuttle 0.5 μM, GFP-NLS 5 μM, 15 seconds", "result": "34.9 ± 3.8", "unit": "%"}, {"measurement": "Mean % cells with GFP signal (±St. Dev.; n = 3)", "setting": "THP-1 cells; Table 9.3, Protocol C, THP-1, shuttle 5 μM, GFP-NLS 5 μM, 15 seconds", "result": "64.1 ± 1.6", "unit": "%"}, {"measurement": "GFP-NLS intracellular delivery (microscopy / FACS, in words)", "setting": "THP-1 cells; shuttle 5 μM, GFP-NLS 5 μM, 15 seconds, Protocol C", "result": "successfully delivered intracellularly"}]}]}
